The text below walks through data of PubChem BioAssay (NCI).

Test systems include MDA-MB-435; OVCAR-3 ovarian; HCC-2998 colon; SNB-19 CNS; NCI-H23 lung; HS 578T breast; IGROV1 ovarian; MDA-MB-231 breast; CCRF-CEM leukemia; U251 CNS.
Holding throughout (test): NCI tumour cell line growth inhibition, 48 h

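Following 48 hours of exposure in 96-well plates, responses at five concentrations were used to interpolate endpoints linearly. GI50 = concentration required for 50% inhibition of growth. The concentration for full growth arrest is given as TGI.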 A value given as a limit tells only on which side of the number the result lay.

With `COc1cc2c3c(n(CCCOC(=O)C(F)(F)F)c(=O)c2cc1OC)-c1cc2c(cc1C3=O)OCO2`, the GI50 in the assay on MDA-MB-435 was 0.0232 µM; in the assay with OVCAR-3 ovarian it was 0.0425 µM; with HCC-2998 colon, 0.131 µM; in the assay with NCI-H23 lung, below 0.0158 µM; with HS 578T breast, 52.7 µM; in the assay on IGROV1 ovarian it was 0.555 µM. Also, the GI50 is 0.127 µM in the assay on MDA-MB-231 breast, below 0.01 µM in the assay with CCRF-CEM leukemia and below 0.01 µM with U251 CNS. The TGI in the assay on MDA-MB-435 was 3.69 µM; with OVCAR-3 ovarian, 0.306 µM; in the assay on HCC-2998 colon, 0.539 µM; with SNB-19 CNS, above 100 µM; in the assay on NCI-H23 lung it was below 0.045 µM; in the assay on HS 578T breast, above 100 µM. Moreover, the TGI in the assay on IGROV1 ovarian was above 100 µM; with MDA-MB-231 breast it was above 49.9 µM; in the assay with CCRF-CEM leukemia it was above 100 µM; in the assay on U251 CNS it was 1.07 µM.

Consider `N#Cc1c(N/N=C/c2ccc(Cl)cc2Cl)nc(N)nc1N1CCCC1`, for which the GI50 was 62.2 µM in the assay on MDA-MB-435; 25.5 µM with OVCAR-3 ovarian; above 100 µM with HCC-2998 colon; 49.9 µM in the assay with SNB-19 CNS; 38.5 µM in the assay with NCI-H23 lung; 2.4 µM in the assay with HS 578T breast. In addition, the GI50 is 13.8 µM in the assay with IGROV1 ovarian, 24.8 µM with MDA-MB-231 breast, 23.5 µM in the assay on CCRF-CEM leukemia and 9.02 µM in the assay with U251 CNS. In addition, the TGI in the assay with MDA-MB-435 was above 100 µM; with OVCAR-3 ovarian it was above 100 µM; in the assay on HCC-2998 colon, above 100 µM; in the assay on SNB-19 CNS, above 100 µM; in the assay on NCI-H23 lung, above 100 µM; in the assay on HS 578T breast it was 7.01 µM. Besides, the TGI with IGROV1 ovarian is 39.5 µM; with MDA-MB-231 breast, above 100 µM; in the assay with CCRF-CEM leukemia, 58.3 µM; in the assay on U251 CNS, 23.4 µM.

`OCc1ccn2c1[C@@H](O)CC2`: the TGI with MDA-MB-435, with OVCAR-3 ovarian, in the assay on HCC-2998 colon, in the assay on SNB-19 CNS, in the assay on NCI-H23 lung and in the assay on HS 578T breast was above 100 µM in each case. Further, the TGI in the assay on IGROV1 ovarian, with MDA-MB-231 breast, in the assay with CCRF-CEM leukemia and in the assay on U251 CNS was above 100 µM in each case.

As for `COc1ccc(-c2coc3c4c(ccc3c2=O)OCO4)cc1OC`, the TGI in the assay with MDA-MB-435 was above 100 µM; with OVCAR-3 ovarian, above 100 µM; in the assay with HCC-2998 colon it was above 100 µM; in the assay on SNB-19 CNS, 82 µM; with NCI-H23 lung, above 100 µM; in the assay with HS 578T breast, above 100 µM. Also, the TGI with IGROV1 ovarian, in the assay on MDA-MB-231 breast, with CCRF-CEM leukemia and in the assay with U251 CNS was above 100 µM each time.

As to `CCn1sc2ccccc2c1=O`, the TGI with MDA-MB-435 amounted to 5.82 µM; in the assay with OVCAR-3 ovarian, 29.7 µM; in the assay on HCC-2998 colon it was 34 µM; with SNB-19 CNS it was 32.9 µM; in the assay on NCI-H23 lung it was 34.7 µM; in the assay on HS 578T breast it was 32.4 µM. The TGI in the assay with IGROV1 ovarian was 19.6 µM; in the assay on MDA-MB-231 breast, 27.2 µM; in the assay on CCRF-CEM leukemia, above 48.2 µM; in the assay with U251 CNS, 16.1 µM.

In the case of `CCCOc1ccc2sc(NC(=O)OC)nc2c1`, the GI50 in the assay on MDA-MB-435 was 0.215 µM; in the assay with OVCAR-3 ovarian, 2.27 µM; in the assay on HCC-2998 colon it was 24.5 µM; in the assay with SNB-19 CNS it was 10.2 µM; in the assay on NCI-H23 lung, 5.77 µM; with HS 578T breast it was 3.48 µM. Also, the GI50 in the assay with MDA-MB-231 breast was above 100 µM; in the assay with CCRF-CEM leukemia it was 2.07 µM; in the assay on U251 CNS it was 2.42 µM. Besides, the TGI with MDA-MB-435 was 0.587 µM; in the assay with OVCAR-3 ovarian, 19.9 µM; in the assay with HCC-2998 colon, above 100 µM; in the assay on SNB-19 CNS, above 100 µM; in the assay with NCI-H23 lung, above 100 µM; in the assay with HS 578T breast it was above 100 µM. The TGI was above 100 µM in the assay on IGROV1 ovarian, above 100 µM in the assay with MDA-MB-231 breast, above 28.4 µM with CCRF-CEM leukemia and above 100 µM in the assay on U251 CNS.

On to `COc1ccc(O)c(C(=O)c2ccc(C(=O)N[C@H]3CCCNC[C@@H]3NC(=O)c3ccncc3)cc2)c1F`, for which the GI50 in the assay with MDA-MB-435 is above 14.9 µM; with OVCAR-3 ovarian, 4.3 µM; in the assay on HCC-2998 colon, 9.74 µM; in the assay with SNB-19 CNS it was 10.4 µM; in the assay with NCI-H23 lung, 2.63 µM; in the assay on HS 578T breast, 0.0882 µM. Moreover, the GI50 was 3.74 µM with IGROV1 ovarian, above 25 µM in the assay with MDA-MB-231 breast, 0.721 µM in the assay with CCRF-CEM leukemia and 8.12 µM in the assay with U251 CNS. Further, the TGI is above 25 µM with MDA-MB-435; above 23 µM with OVCAR-3 ovarian; above 25 µM in the assay with HCC-2998 colon; above 25 µM in the assay on SNB-19 CNS; above 25 µM in the assay on NCI-H23 lung; 12.5 µM in the assay with HS 578T breast. The TGI with IGROV1 ovarian is above 25 µM; in the assay on MDA-MB-231 breast, above 25 µM; in the assay on CCRF-CEM leukemia, 6.42 µM; in the assay on U251 CNS it was above 25 µM.

For `CN(CCO)c1ccc(N2Cc3ccccc3OC3=C2C(=O)c2c(O)ccc(O)c2C3=O)cn1`, the GI50 in the assay on MDA-MB-435 was 0.215 µM; in the assay on OVCAR-3 ovarian, 0.111 µM; with HCC-2998 colon it was 0.249 µM; in the assay on SNB-19 CNS it was 0.465 µM; in the assay on NCI-H23 lung, 0.263 µM; in the assay on HS 578T breast, 0.418 µM. Further, the GI50 was 0.203 µM with IGROV1 ovarian, 0.221 µM with MDA-MB-231 breast, 0.0566 µM in the assay with CCRF-CEM leukemia and 0.284 µM in the assay with U251 CNS. In addition, the TGI with MDA-MB-435 was 0.478 µM; with OVCAR-3 ovarian, 0.276 µM; in the assay with HCC-2998 colon, 0.608 µM; in the assay with SNB-19 CNS, 1.67 µM; with NCI-H23 lung it was 0.834 µM; in the assay with HS 578T breast, above 100 µM. Further, the TGI in the assay with IGROV1 ovarian worked out at 0.636 µM; in the assay with MDA-MB-231 breast, 0.679 µM; with CCRF-CEM leukemia, 0.548 µM; in the assay on U251 CNS, 0.82 µM.

Turning to `O=C1NC(=O)/C(=C\c2ccccc2)C2=C1CCCC2`, the GI50 in the assay on MDA-MB-435 was 1.82 µM; in the assay with OVCAR-3 ovarian, 2.71 µM; in the assay on HCC-2998 colon, 7.46 µM; in the assay on SNB-19 CNS, 10.3 µM; with NCI-H23 lung it was 2.63 µM; in the assay on HS 578T breast, 3.46 µM. The GI50 in the assay with IGROV1 ovarian is 13 µM; in the assay with MDA-MB-231 breast, 13.2 µM; in the assay on CCRF-CEM leukemia, 3.7 µM; in the assay on U251 CNS it was 4.82 µM. Also, the TGI was 3.49 µM in the assay with MDA-MB-435; 8.17 µM in the assay with OVCAR-3 ovarian; 14 µM in the assay with HCC-2998 colon; 22.1 µM with SNB-19 CNS; 8.33 µM in the assay on NCI-H23 lung; 22.8 µM in the assay with HS 578T breast. In addition, the TGI with IGROV1 ovarian is 32.4 µM; in the assay on MDA-MB-231 breast it was 26.4 µM; in the assay with CCRF-CEM leukemia it was above 37.9 µM; with U251 CNS, 16.2 µM.

`COc1ccc(-n2c(C)cc(-c3ccccc3)c2C)cc1`: the GI50 was 1.56 µM in the assay with MDA-MB-435; 2.61 µM with OVCAR-3 ovarian; 3.04 µM in the assay on HCC-2998 colon; 8.41 µM with SNB-19 CNS; 2.16 µM in the assay on NCI-H23 lung; 4.58 µM with HS 578T breast. For the same compound, the GI50 in the assay with IGROV1 ovarian is 4.23 µM; in the assay on MDA-MB-231 breast it was 1.56 µM; in the assay on CCRF-CEM leukemia it was 2.16 µM; with U251 CNS, 2.87 µM. The TGI in the assay on MDA-MB-435 was 5.58 µM; with OVCAR-3 ovarian, 10.7 µM; with HCC-2998 colon, 11.4 µM; in the assay with SNB-19 CNS, above 100 µM; with NCI-H23 lung it was 16.2 µM; with HS 578T breast it was above 100 µM. Further, the TGI in the assay on IGROV1 ovarian came out at 34.8 µM; with MDA-MB-231 breast it was 3.66 µM; with CCRF-CEM leukemia it was 9.16 µM; with U251 CNS it was 25.4 µM.

With `c1ccc2c(c1)c1c(c3ccccc32)CN2CCCC2C1` (stereo not drawn), the TGI with MDA-MB-435 is 31.6 µM; with OVCAR-3 ovarian, 22.9 µM; with HCC-2998 colon, 17.1 µM; in the assay with SNB-19 CNS, above 22.5 µM; in the assay on NCI-H23 lung, 10.3 µM; with HS 578T breast, 13.8 µM. For the same compound, the TGI with IGROV1 ovarian came to 12 µM; in the assay on MDA-MB-231 breast it was 32.3 µM; in the assay with CCRF-CEM leukemia it was 15.5 µM; in the assay with U251 CNS it was 23.1 µM.

In the case of `COc1ccc(-c2ccc(-c3ccc(C(=N)N)s3)s2)cc1`, the GI50 is 0.179 µM in the assay on MDA-MB-435; 0.194 µM in the assay with OVCAR-3 ovarian; 0.273 µM in the assay with HCC-2998 colon; 0.31 µM with SNB-19 CNS; 0.264 µM in the assay on NCI-H23 lung; 0.295 µM in the assay with HS 578T breast. Also, the GI50 with IGROV1 ovarian is 0.244 µM; with MDA-MB-231 breast, 0.186 µM; in the assay with CCRF-CEM leukemia, 0.208 µM; with U251 CNS, 0.179 µM. For the same compound, the TGI in the assay on MDA-MB-435 is 0.336 µM; in the assay on OVCAR-3 ovarian, 0.352 µM; in the assay with HCC-2998 colon it was 0.699 µM; in the assay on SNB-19 CNS it was 1.41 µM; with NCI-H23 lung it was 0.66 µM; with HS 578T breast, 1.41 µM. Further, the TGI in the assay with IGROV1 ovarian turned out to be 0.509 µM; with MDA-MB-231 breast, 0.371 µM; in the assay on CCRF-CEM leukemia, 0.485 µM; in the assay on U251 CNS, 0.337 µM.

As to `O=C1NC(=NCCc2cccc(Cl)c2)S/C1=C\c1ccc2ncccc2c1`, the GI50 in the assay on MDA-MB-435 is 0.635 µM; in the assay on OVCAR-3 ovarian, above 25 µM; in the assay on HCC-2998 colon it was above 25 µM; in the assay with SNB-19 CNS, above 25 µM; in the assay with NCI-H23 lung, above 25 µM; in the assay with HS 578T breast, above 25 µM. Besides, the GI50 with IGROV1 ovarian, with MDA-MB-231 breast, in the assay with CCRF-CEM leukemia and in the assay on U251 CNS was above 25 µM throughout. In addition, the TGI in the assay with MDA-MB-435, in the assay on OVCAR-3 ovarian, in the assay with HCC-2998 colon, with SNB-19 CNS, in the assay on NCI-H23 lung and in the assay with HS 578T breast was above 25 µM in each case. Besides, the TGI in the assay on IGROV1 ovarian, with MDA-MB-231 breast, with CCRF-CEM leukemia and with U251 CNS was above 25 µM throughout.
